According to PMC4821887, “Identification of chemicals that mimic transcriptional changes associated with autism, brain aging and neurodegeneration” (Nature Communications, 2016):

Tested on: mouse cortical cultures
Assay: RNA-seq differential expression (DESeq) against matched vehicle
Assay type: cell-based
Design: key to MeanFenamidone Bcl11b / MeanFenamidone Slc12a4 / MeanFenamidone Abca1 / MeanFenamidone Hmox1 / MeanFenamidone Il1rap / MeanFenamidone Cyba / MeanFenamidone Narf / MeanFenamidone Bnip3 / MeanFenamidone Amotl2 / MeanFenamidone Gad2 / MeanFenamidone Vsnl1 / MeanFenamidone Fam178a: DESeq mean of counts over RefSeq exons
Experimental: Figure 4 Cluster 2 chemicals alter expression of a common set of genes. […] RNA-seq was performed in quadruplicate after treating cortical cultures with fenamidone (10 μM) or pyraclostrobin (0.1 μM) for 24 h (n=3 biological replicates) and compared with matched vehicle controls using DESeq to detect differentially expressed genes, listed in Supplementary Data 4.
Cultures were treated with the non-cytotoxic dose of each chemical, by exchanging half of the original medium with chemicals at 2 × concentration in prewarmed feeding medium, on DIV 7 for 24 h in 12-well plates at a density of 5 × 10^5 cells per well. RNA was isolated using RNeasy plus mini kit (Cat. #74134, Qiagen). […]. Samples were further assessed for quality using either an Agilent Bioanalyzer 2100 or TapeStation 2200 to obtain a RIN. RIN values exceeding 7 were used for sequencing. RNA samples were used to generate and barcode complementary DNA libraries using the TruSeq RNA Library Preparation Kit at the UNC High Throughput Sequencing Facility. Pools of 24 multiplexed samples were sequenced per lane on an Illumina HiSeq 2500 using 50-bp paired-end reads.
RNA-seq reads were filtered using TagDust and aligned to the reference mouse genome (mm9) with TopHat using default parameters. Reads aligning to ribosomal RNA genes were removed. Transcript abundance was estimated by computing Reads per kilobase per million mapped reads (RPKM) using RefSeq gene models aggregated by gene symbol. For differential expression analyses, raw counts over RefSeq exons were used, and then were compared across samples using DESeq[62].

CSC1=N[C@@](C)(c2ccccc2)C(=O)N1Nc1ccccc1 [fenamidone]
MeanFenamidone (gene Dclk1): 2436.98 | log2FoldChange (gene Dclk1): -1.095 | MeanFenamidone (gene Dcxr): 235.507 | log2FoldChange (gene Dcxr): 3.058 | MeanFenamidone (gene Diras1): 170.873 | log2FoldChange (gene Diras1): -1.25 | MeanFenamidone (gene Dlg2): 695.294 | log2FoldChange (gene Dlg2): -1.3121 | MeanFenamidone Dlx1as (gene Dlx1as, DESeq mean, 4 reps): 22.8822 | log2FoldChange Dlx1as (gene Dlx1as, vs vehicle, 4 reps): -2.397 | MeanFenamidone (gene Dnaja1): 313.407 | log2FoldChange (gene Dnaja1): -1.061 | MeanFenamidone Dnm3 (gene Dnm3, DESeq mean, 4 reps): 187.1 | log2FoldChange Dnm3 (gene Dnm3, vs vehicle, 4 reps): -1.706 | MeanFenamidone Dpp10 (gene Dpp10, DESeq mean, 4 reps): 62.8613 | log2FoldChange Dpp10 (gene Dpp10, vs vehicle, 4 reps): -1.776 | MeanFenamidone Dzank1 (gene Dzank1, DESeq mean, 4 reps): 112.179 | log2FoldChange Dzank1 (gene Dzank1, vs vehicle, 4 reps): -1.428 | MeanFenamidone Eda2r (gene Eda2r, DESeq mean, 4 reps): 436.944 | log2FoldChange Eda2r (gene Eda2r, vs vehicle, 4 reps): 1.783 | MeanFenamidone Efemp1 (gene Efemp1, DESeq mean, 4 reps): 94.4395 | log2FoldChange Efemp1 (gene Efemp1, vs vehicle, 4 reps): 2.414 | MeanFenamidone (gene Egfr): 148.93 | log2FoldChange (gene Egfr): 1.836 | MeanFenamidone Eif4ebp1 (gene Eif4ebp1, DESeq mean, 4 reps): 125.436 | log2FoldChange Eif4ebp1 (gene Eif4ebp1, vs vehicle, 4 reps): 2.511 | MeanFenamidone Elavl2 (gene Elavl2, DESeq mean, 4 reps): 207.006 | log2FoldChange Elavl2 (gene Elavl2, vs vehicle, 4 reps): -1.527 | MeanFenamidone Elovl1 (gene Elovl1, DESeq mean, 4 reps): 104.754 | log2FoldChange Elovl1 (gene Elovl1, vs vehicle, 4 reps): 2.586 | MeanFenamidone (gene Enox1): 25.4463 | log2FoldChange (gene Enox1): -1.757 | MeanFenamidone (gene Epas1): 154.593 | log2FoldChange (gene Epas1): 2.42 | MeanFenamidone Ephx1 (gene Ephx1, DESeq mean, 4 reps): 789.724 | log2FoldChange Ephx1 (gene Ephx1, vs vehicle, 4 reps): 1.959 | MeanFenamidone (gene Epm2aip1): 711.569 | log2FoldChange (gene Epm2aip1): -0.9776 | MeanFenamidone (gene Etfb): 102.831 | log2FoldChange (gene Etfb): 1.903 | MeanFenamidone (gene Evc): 45.1413 | log2FoldChange (gene Evc): 1.984 | MeanFenamidone F2r (gene F2r, DESeq mean, 4 reps): 1216.46 | log2FoldChange F2r (gene F2r, vs vehicle, 4 reps): 2.012 | MeanFenamidone F3 (gene F3, DESeq mean, 4 reps): 324.561 | log2FoldChange F3 (gene F3, vs vehicle, 4 reps): 2.464 | MeanFenamidone (gene Fam78b): 119.127 | log2FoldChange (gene Fam78b): -1.289 | MeanFenamidone Fam163b (gene Fam163b, DESeq mean, 4 reps): 135.664 | log2FoldChange Fam163b (gene Fam163b, vs vehicle, 4 reps): -1.491 | MeanFenamidone Fam178a (gene Fam178a, DESeq mean, 4 reps): 780.387 | log2FoldChange Fam178a (gene Fam178a, vs vehicle, 4 reps): 1.493 | MeanFenamidone Fat1 (gene Fat1, DESeq mean, 4 reps): 2188.76 | log2FoldChange Fat1 (gene Fat1, vs vehicle, 4 reps): 1.677 | MeanFenamidone Fbn1 (gene Fbn1, DESeq mean, 4 reps): 159.478 | log2FoldChange Fbn1 (gene Fbn1, vs vehicle, 4 reps): 2.303 | MeanFenamidone Fbxo9 (gene Fbxo9, DESeq mean, 4 reps): 32.2944 | log2FoldChange Fbxo9 (gene Fbxo9, vs vehicle, 4 reps): -2.181 | MeanFenamidone Fermt2 (gene Fermt2, DESeq mean, 4 reps): 437.255 | log2FoldChange Fermt2 (gene Fermt2, vs vehicle, 4 reps): 1.474 | MeanFenamidone (gene Fgf13): 224.473 | log2FoldChange (gene Fgf13): -1.202 | MeanFenamidone Fgfr3 (gene Fgfr3, DESeq mean, 4 reps): 309.362 | log2FoldChange Fgfr3 (gene Fgfr3, vs vehicle, 4 reps): 1.548 | MeanFenamidone Fkbp9 (gene Fkbp9, DESeq mean, 4 reps): 763.489 | log2FoldChange Fkbp9 (gene Fkbp9, vs vehicle, 4 reps): 1.78 | MeanFenamidone Flna (gene Flna, DESeq mean, 4 reps): 4335.97 | log2FoldChange Flna (gene Flna, vs vehicle, 4 reps): 1.783 | MeanFenamidone Flnb (gene Flnb, DESeq mean, 4 reps): 1183.24 | log2FoldChange Flnb (gene Flnb, vs vehicle, 4 reps): 2.364 | MeanFenamidone Flnc (gene Flnc, DESeq mean, 4 reps): 270.515 | log2FoldChange Flnc (gene Flnc, vs vehicle, 4 reps): 3.121 | MeanFenamidone Fn1 (gene Fn1, DESeq mean, 4 reps): 2242.75 | log2FoldChange Fn1 (gene Fn1, vs vehicle, 4 reps): 2.874 | MeanFenamidone (gene Fzd7): 201.665 | log2FoldChange (gene Fzd7): 1.705 | MeanFenamidone Gad1 (gene Gad1, DESeq mean, 4 reps): 102.047 | log2FoldChange Gad1 (gene Gad1, vs vehicle, 4 reps): -2.011 | MeanFenamidone Gad2 (gene Gad2, DESeq mean, 4 reps): 49.2241 | log2FoldChange Gad2 (gene Gad2, vs vehicle, 4 reps): -2.6503 | MeanFenamidone (gene Gas6): 1188.11 | log2FoldChange (gene Gas6): 1.393 | MeanFenamidone (gene Gas7): 704.19 | log2FoldChange (gene Gas7): -1.128 | MeanFenamidone Gdf15 (gene Gdf15, DESeq mean, 4 reps): 107.196 | log2FoldChange Gdf15 (gene Gdf15, vs vehicle, 4 reps): 3.431 | MeanFenamidone (gene Glis2): 157.775 | log2FoldChange (gene Glis2): 1.455 | MeanFenamidone Gls (gene Gls, DESeq mean, 4 reps): 297.391 | log2FoldChange Gls (gene Gls, vs vehicle, 4 reps): -1.569 | MeanFenamidone Gm5424 (gene Gm5424, DESeq mean, 4 reps): 1293.84 | log2FoldChange Gm5424 (gene Gm5424, vs vehicle, 4 reps): 2.267 | MeanFenamidone (gene Gng2): 1878.98 | log2FoldChange (gene Gng2): -1.047 | MeanFenamidone Gpnmb (gene Gpnmb, DESeq mean, 4 reps): 552.991 | log2FoldChange Gpnmb (gene Gpnmb, vs vehicle, 4 reps): 3.791 | MeanFenamidone (gene Gpr22): 61.8379 | log2FoldChange (gene Gpr22): -1.6935 | MeanFenamidone Gpr88 (gene Gpr88, DESeq mean, 4 reps): 81.4648 | log2FoldChange Gpr88 (gene Gpr88, vs vehicle, 4 reps): -2.268 | MeanFenamidone Gpx1 (gene Gpx1, DESeq mean, 4 reps): 550.81 | log2FoldChange Gpx1 (gene Gpx1, vs vehicle, 4 reps): 1.571 | MeanFenamidone Grik3 (gene Grik3, DESeq mean, 4 reps): 96.3695 | log2FoldChange Grik3 (gene Grik3, vs vehicle, 4 reps): -2.234 | MeanFenamidone (DESeq mean normalized counts) (gene Grin1os, Fenamidone, 4 reps, vs matched vehicle): 76.6399 | MeanFenamidone (gene Grm5): 468.182 | log2FoldChange (gene Grm5): -1.139 | MeanFenamidone Gss (gene Gss, DESeq mean, 4 reps): 95.0873 | log2FoldChange Gss (gene Gss, vs vehicle, 4 reps): 2.127 | MeanFenamidone Gstm1 (gene Gstm1, DESeq mean, 4 reps): 533.415 | log2FoldChange Gstm1 (gene Gstm1, vs vehicle, 4 reps): 2.03 | MeanFenamidone (gene Gtse1): 113.042 | log2FoldChange (gene Gtse1): 1.636 | MeanFenamidone Gxylt2 (gene Gxylt2, DESeq mean, 4 reps): 58.8169 | log2FoldChange Gxylt2 (gene Gxylt2, vs vehicle, 4 reps): 2.562 | MeanFenamidone Hbegf (gene Hbegf, DESeq mean, 4 reps): 726.667 | log2FoldChange Hbegf (gene Hbegf, vs vehicle, 4 reps): 2.744 | MeanFenamidone (gene Hivep2): 554.938 | log2FoldChange (gene Hivep2): -0.989 | MeanFenamidone Hmox1 (gene Hmox1, DESeq mean, 4 reps): 1318.42 | log2FoldChange Hmox1 (gene Hmox1, vs vehicle, 4 reps): 3.72 | MeanFenamidone Hspg2 (gene Hspg2, DESeq mean, 4 reps): 1082.79 | log2FoldChange Hspg2 (gene Hspg2, vs vehicle, 4 reps): 3.326 | MeanFenamidone Icam1 (gene Icam1, DESeq mean, 4 reps): 359.44 | log2FoldChange Icam1 (gene Icam1, vs vehicle, 4 reps): 2.082 | MeanFenamidone Igdcc4 (gene Igdcc4, DESeq mean, 4 reps): 745.33 | log2FoldChange Igdcc4 (gene Igdcc4, vs vehicle, 4 reps): 1.594 | MeanFenamidone Il1rap (gene Il1rap, DESeq mean, 4 reps): 123.358 | log2FoldChange Il1rap (gene Il1rap, vs vehicle, 4 reps): 1.873 | MeanFenamidone Inf2 (gene Inf2, DESeq mean, 4 reps): 157.523 | log2FoldChange Inf2 (gene Inf2, vs vehicle, 4 reps): 1.741 | MeanFenamidone (gene Irs1): 506.425 | log2FoldChange (gene Irs1): 1.154 | MeanFenamidone Itga3 (gene Itga3, DESeq mean, 4 reps): 452.545 | log2FoldChange Itga3 (gene Itga3, vs vehicle, 4 reps): 2.403 | MeanFenamidone Itga5 (gene Itga5, DESeq mean, 4 reps): 86.8768 | log2FoldChange Itga5 (gene Itga5, vs vehicle, 4 reps): 3.801 | MeanFenamidone Itga6 (gene Itga6, DESeq mean, 4 reps): 547.54 | log2FoldChange Itga6 (gene Itga6, vs vehicle, 4 reps): 1.506 | MeanFenamidone Itga7 (gene Itga7, DESeq mean, 4 reps): 82.7144 | log2FoldChange Itga7 (gene Itga7, vs vehicle, 4 reps): 2.577 | MeanFenamidone Itgav (gene Itgav, DESeq mean, 4 reps): 659.409 | log2FoldChange Itgav (gene Itgav, vs vehicle, 4 reps): 1.938 | MeanFenamidone Itgb1 (gene Itgb1, DESeq mean, 4 reps): 2073.15 | log2FoldChange Itgb1 (gene Itgb1, vs vehicle, 4 reps): 1.665 | MeanFenamidone (gene Kcnc2): 16.7005 | log2FoldChange (gene Kcnc2): -1.836 | MeanFenamidone Kcnh3 (gene Kcnh3, DESeq mean, 4 reps): 28.6602 | log2FoldChange Kcnh3 (gene Kcnh3, vs vehicle, 4 reps): -2.172 | MeanFenamidone Kcnv1 (gene Kcnv1, DESeq mean, 4 reps): 52.8142 | log2FoldChange Kcnv1 (gene Kcnv1, vs vehicle, 4 reps): -2.08 | MeanFenamidone (gene Kctd12): 687.782 | log2FoldChange (gene Kctd12): -1.125 | MeanFenamidone Kdelc2 (gene Kdelc2, DESeq mean, 4 reps): 146.187 | log2FoldChange Kdelc2 (gene Kdelc2, vs vehicle, 4 reps): 1.909 | MeanFenamidone Kif1c (gene Kif1c, DESeq mean, 4 reps): 782.878 | log2FoldChange Kif1c (gene Kif1c, vs vehicle, 4 reps): 2.167
